Reference: PubChem BioAssay (NCI)
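Step 1: Grow cells in 96-well plates. Step 2: Expose to compound for 48 hours at 5 concentrations. Step 3: Interpolate endpoints linearly; if unreached, use highest concentration. TGI: concentration producing complete growth inhibition.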

Legend:
Experiment in all cases: NCI tumour cell line growth inhibition, 48 h
[1] = tested on: A549 NSCLC
[2] = tested on: CCRF-CEM leukemia
[3] = tested on: COLO 205 colon
[4] = tested on: DMS 114 small cell lung
[5] = tested on: EKVX NSCLC
[6] = tested on: HCT-116 colon
[7] = tested on: HL-60(TB) leukemia
[8] = tested on: HOP-62 NSCLC
[9] = tested on: HOP-92 NSCLC
[10] = tested on: HT29 colon
[11] = tested on: IGROV1 ovarian
[12] = tested on: K-562 leukemia
[13] = tested on: KM12 colon
[14] = tested on: KM20L2 colon
[15] = tested on: LXFL 529 NSCLC
[16] = tested on: M14 melanoma
[17] = tested on: M19-MEL melanoma
[18] = tested on: MALME-3M melanoma
[19] = tested on: MOLT-4 leukemia
[20] = tested on: NCI-H23 lung
[21] = tested on: NCI-H460 lung
[22] = tested on: NCI-H522 lung
[23] = tested on: OVCAR-3 ovarian
[24] = tested on: OVCAR-4 ovarian
[25] = tested on: OVCAR-5 ovarian
[26] = tested on: OVCAR-8 ovarian
[27] = tested on: RPMI-8226 leukemia
[28] = tested on: RXF 393 renal
[29] = tested on: SF-268 CNS
[30] = tested on: SF-295 CNS
[31] = tested on: SF-539 CNS
[32] = tested on: SK-MEL-2 melanoma
[33] = tested on: SK-MEL-28 melanoma
[34] = tested on: SK-MEL-5 melanoma
[35] = tested on: SK-OV-3 ovarian
[36] = tested on: SN12C renal
[37] = tested on: SNB-19 CNS
[38] = tested on: SNB-75 CNS
[39] = tested on: SR leukemia
[40] = tested on: SW-620 colon
[41] = tested on: TK-10 renal
[42] = tested on: U251 CNS
[43] = tested on: UACC-257 melanoma
[44] = tested on: UACC-62 melanoma
[45] = tested on: UO-31 renal
[46] = tested on: XF 498 CNS
[47] = tested on: 786-0 renal
[48] = tested on: A498 renal
[49] = tested on: ACHN renal
[50] = tested on: CAKI-1 renal
[51] = tested on: DLD-1 colon
[52] = tested on: DMS 273 small cell lung
[53] = tested on: HCC-2998 colon
[54] = tested on: HCT-15 colon
[55] = tested on: LOX IMVI melanoma
[56] = tested on: NCI-H226 lung
[57] = tested on: SNB-78 CNS
[58] = tested on: HOP-18 NSCLC

Measured: TGI

COc1ccc(N2C(Cl)C(=O)C2c2c[nH]c3ccccc23)cc1 (stereo unspecified)
not listed: [47] | [48] | [49] | [50] | [51] | [52] | [53] | [54] | [55] | [56] | [57] | [58]
> 100 µM: all other assays above

COC1=CC(=O)[C@]2(C)[C@H](C1=O)C(C)[C@H]2c1ccc(OC)cc1 (stereo partly specified)
not listed: [4] | [6] | [14] | [36] | [58]
> 100 µM: all other assays above

CN=c1ss/c(=N\C(=S)N(C)C)n1-c1ccccc1
> 28.5 µM: [22]
> 82.1 µM: [28]
> 31.6 µM: [10]
42.6 µM: [38]
not listed: [46]
> 100 µM: all other assays above
